Experimental findings from PubChem BioAssay (NCI) are described below.

The structures appear in SMILES notation.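 Where inhibition never reached the appropriate level, the endpoint shown equals the highest concentration tested. Otherwise, values were interpolated linearly from a five-concentration, 48-hour dose response in 96-well plates. GI50 is the concentration that inhibits growth by half. TGI: total growth inhibition.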

Some test systems named below: HCT-116 colon; SF-268 CNS; 786-0 renal; HT29 colon; SNB-75 CNS; SK-MEL-2 melanoma; ACHN renal; UO-31 renal; KM12 colon; SR leukemia.
Holding throughout (assay): inhibition of tumour cell growth, NCI panel, 48 h

Take `N#Cc1c(N)nc(N2CCOCC2)c(C#N)c1-c1ccc(Cl)cc1`: the GI50 in the test on HCT-116 colon is 65.1 µM; in the test on SF-268 CNS, 61.7 µM; in the test on 786-0 renal, 70.7 µM; in the test on HT29 colon, 43.3 µM; with SNB-75 CNS, 14.5 µM; in the test with SK-MEL-2 melanoma, 18.1 µM. Further, the TGI with HCT-116 colon was greater than 100 µM; with SF-268 CNS it was greater than 100 µM; in the test with 786-0 renal it was greater than 100 µM; in the test on HT29 colon it was greater than 100 µM; in the test on SNB-75 CNS, 55.9 µM; in the test with SK-MEL-2 melanoma, 56.2 µM.

Consider `Cc1ccc(S(=O)(=O)NNC(=O)c2sc(-c3nc(C)c(C(=O)NNS(=O)(=O)c4ccc(C)cc4)s3)nc2C)cc1`, for which the TGI was greater than 100 µM in the test on HCT-116 colon; greater than 100 µM in the test with ACHN renal; greater than 100 µM in the test on SF-268 CNS; greater than 100 µM in the test with 786-0 renal; 99.7 µM in the test with UO-31 renal; greater than 100 µM in the test with KM12 colon. The TGI with HT29 colon, in the test on SNB-75 CNS and in the test with SK-MEL-2 melanoma was greater than 100 µM each time.

Regarding `O=C(O)C12C3C4C1C1C2C3C1(Br)C41OCCO1` (centres undefined), the TGI in the test with HCT-116 colon, with ACHN renal, in the test with SF-268 CNS, in the test on 786-0 renal, in the test with UO-31 renal and with KM12 colon was greater than 100 µM throughout. Further, the TGI in the test with HT29 colon, with SNB-75 CNS and in the test with SK-MEL-2 melanoma was greater than 100 µM throughout.

Regarding `COc1ccc(-c2nnc(SCC(=O)Nc3ccc(/C(C)=N\O)cc3)n2-c2ccccc2)cc1OC`, the GI50 was 11.3 µM in the test on HCT-116 colon; greater than 100 µM in the test with SR leukemia; 8.08 µM in the test with ACHN renal; 3.07 µM with SF-268 CNS; 14.9 µM in the test with 786-0 renal; greater than 100 µM with UO-31 renal. In addition, the GI50 with KM12 colon was greater than 100 µM; in the test with HT29 colon, greater than 100 µM; in the test with SK-MEL-2 melanoma, 5.04 µM. For the same compound, the TGI in the test with HCT-116 colon was greater than 100 µM; in the test on SR leukemia it was greater than 100 µM; in the test on ACHN renal, greater than 100 µM; in the test on SF-268 CNS, 20.3 µM; with 786-0 renal, greater than 100 µM; in the test on UO-31 renal, greater than 100 µM. The TGI in the test with KM12 colon was greater than 100 µM; in the test with HT29 colon, greater than 100 µM; with SK-MEL-2 melanoma it was 28.8 µM.

For the compound `COc1ccc(C2=NN(C(=O)COc3ccc(Cl)cc3)C(O)(c3ccc(Cl)cc3)C2)cc1` (centres undefined), the TGI with HCT-116 colon, in the test with ACHN renal, in the test on SF-268 CNS, with 786-0 renal, in the test with UO-31 renal and in the test with KM12 colon was greater than 100 µM each time. The TGI with HT29 colon, in the test on SNB-75 CNS and with SK-MEL-2 melanoma was greater than 100 µM in each case.

As to `O=C1CC(c2ccc3c(c2)OCO3)Nc2cc3c(cc21)OCO3` (centres undefined), the GI50 with HCT-116 colon is 1.27 µM; with SR leukemia, 0.266 µM; in the test with ACHN renal it was 2.05 µM; in the test on SF-268 CNS it was 0.83 µM; with 786-0 renal, 0.778 µM; in the test on UO-31 renal, 0.767 µM. In addition, the GI50 is 0.398 µM in the test on KM12 colon, 0.374 µM with HT29 colon and 0.747 µM in the test on SK-MEL-2 melanoma. Moreover, the TGI is greater than 100 µM in the test with HCT-116 colon; 12.4 µM in the test with SR leukemia; greater than 100 µM in the test with ACHN renal; greater than 100 µM with SF-268 CNS; 36.3 µM in the test with 786-0 renal; greater than 100 µM in the test on UO-31 renal. The TGI in the test with KM12 colon was 17.3 µM; in the test with HT29 colon, 22.3 µM; in the test on SK-MEL-2 melanoma, greater than 100 µM.

In the case of `CCCCCCCCC(=O)N(C)C1C2CN3CCC(O2)C13` (centres undefined), the TGI with HCT-116 colon, in the test with ACHN renal, with SF-268 CNS, in the test with 786-0 renal, in the test on UO-31 renal and with KM12 colon was greater than 100 µM each time. The TGI with HT29 colon, in the test with SNB-75 CNS and in the test with SK-MEL-2 melanoma was greater than 100 µM throughout.

For `Cc1nn(-c2ccccc2)c2c1CC(=O)Nc1ccccc1-2`, the GI50 with HCT-116 colon is 0.322 µM; with ACHN renal, 0.84 µM; with SF-268 CNS it was 0.623 µM; with 786-0 renal, 0.57 µM; with UO-31 renal, 1.11 µM; with KM12 colon it was 0.0888 µM. Also, the GI50 is 0.0906 µM with HT29 colon, 0.21 µM in the test with SNB-75 CNS and 0.387 µM in the test with SK-MEL-2 melanoma. The TGI with ACHN renal, in the test with SF-268 CNS, with 786-0 renal, in the test with UO-31 renal, in the test with KM12 colon and with SK-MEL-2 melanoma was greater than 100 µM throughout.

With `Cc1ccc2c(c1C)-c1c(ccc(C)c1C)C(=O)C2=O`, the TGI is 13.3 µM in the test on HCT-116 colon; 0.56 µM in the test on SR leukemia; 3.91 µM in the test on ACHN renal; 5.38 µM in the test on SF-268 CNS; 1.8 µM in the test on 786-0 renal; 4.36 µM in the test on UO-31 renal. The TGI with KM12 colon worked out at 2.21 µM; in the test with HT29 colon it was 7.43 µM; in the test with SK-MEL-2 melanoma, 3.1 µM.

Regarding `[C-]#[O+].[C-]#[O+].[C-]#[O+].[C-]#[O+].[Ir].[Ir].[O-]c1ccc2ccccc2c1C=Nc1ccc(N=Cc2c([O-])ccc3ccccc23)cc1`, the GI50 in the test with HCT-116 colon was greater than 100 µM; in the test with SR leukemia, greater than 100 µM; in the test with ACHN renal, greater than 100 µM; in the test on SF-268 CNS, greater than 100 µM; with 786-0 renal, 46.3 µM; in the test on UO-31 renal, greater than 100 µM. In addition, the GI50 in the test with KM12 colon, in the test on HT29 colon and in the test on SK-MEL-2 melanoma was greater than 100 µM in each case. The TGI in the test with HCT-116 colon, in the test on SR leukemia, in the test with ACHN renal, in the test with SF-268 CNS, in the test on 786-0 renal and in the test on UO-31 renal was greater than 100 µM throughout. For the same compound, the TGI in the test with KM12 colon, with HT29 colon and in the test on SK-MEL-2 melanoma was greater than 100 µM throughout.

With `CC1CC(c2cccc3c2OCO3)=Nc2ccccc2S1` (centres undefined), the TGI in the test on ACHN renal, in the test with SF-268 CNS, in the test on 786-0 renal, in the test on UO-31 renal, in the test on KM12 colon and in the test with HT29 colon was greater than 100 µM in each case. The TGI in the test with SNB-75 CNS and in the test with SK-MEL-2 melanoma was greater than 100 µM in each case.
